Data taken from ChEMBL document CHEMBL1201862, “PubChem BioAssay data set” (2004).
The source made the active and inactive calls.

Assays:
[1] = target: Alkaline phosphatase, placental type (Homo sapiens, UniProt P05187); test: human placental alkaline phosphatase inhibition – biochemical, luminescence, confirmation (AID 1512); assay type: functional
[2] = HGIII-sPLA2 enzyme inhibition potency – biochemical, QFRET, IC50, dose response (AID 743457);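 further: green fluorescence rise as the enzyme cleaves BODIPY PC-A2 in liposomes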
[3] = blockade of melanocortin 4 receptor signaling – cell-based, plate reader, cherry pick, counter-screen for LGR2 antagonist project, dose response (AID 743444); assay type: functional;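 further: transfected HEK 293 cells stimulated with alpha-MSH peptide; potency of inhibitors of the alpha-MSH evoked signal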
[4] = A549 cell cytotoxicity, dose response, cytotoxicity control, plate reader, cherry-pick, antagonist series (AID 743412); assay type: functional, cell-based
Protein RecA = target: T1, Protein RecA (Mycobacterium tuberculosis, UniProt P9WHJ3); test: Fluorescence Cell-Free Homogeneous Dose Retest to Identify Inhibitors of RecA-Intein Splicing Activity. [Related pubchem assays (depositor defined):AID2097, AID2223, AID489010, AID492950]; assay type: functional
T1 sequence (P9WHJ3 whole entry): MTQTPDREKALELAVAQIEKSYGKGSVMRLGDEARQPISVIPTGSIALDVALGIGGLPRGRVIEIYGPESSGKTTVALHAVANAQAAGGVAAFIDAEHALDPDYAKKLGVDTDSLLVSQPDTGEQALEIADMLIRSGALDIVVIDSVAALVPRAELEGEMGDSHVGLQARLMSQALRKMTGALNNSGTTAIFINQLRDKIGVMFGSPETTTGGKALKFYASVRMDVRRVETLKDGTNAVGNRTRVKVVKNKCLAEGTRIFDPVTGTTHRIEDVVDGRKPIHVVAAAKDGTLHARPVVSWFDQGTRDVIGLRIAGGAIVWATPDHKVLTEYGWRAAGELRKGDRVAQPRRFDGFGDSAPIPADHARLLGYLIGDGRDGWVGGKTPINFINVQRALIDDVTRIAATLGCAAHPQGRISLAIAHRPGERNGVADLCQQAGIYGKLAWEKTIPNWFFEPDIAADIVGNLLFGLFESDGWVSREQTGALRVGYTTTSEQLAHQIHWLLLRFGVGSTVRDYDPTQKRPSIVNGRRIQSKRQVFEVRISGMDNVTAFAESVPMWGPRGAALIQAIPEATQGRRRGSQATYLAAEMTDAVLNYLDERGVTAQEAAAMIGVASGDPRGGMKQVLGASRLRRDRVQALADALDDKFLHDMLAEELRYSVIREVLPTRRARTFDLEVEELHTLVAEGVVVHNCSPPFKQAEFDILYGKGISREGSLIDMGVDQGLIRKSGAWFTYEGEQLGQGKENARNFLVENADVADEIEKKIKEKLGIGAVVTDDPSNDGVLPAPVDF

[5] = toxicity toward HepG2 liver cells – cell-based, plate reader, cherry-pick, antagonist series, cytotoxicity control, dose response (AID 743416); assay type: functional
[6] = viability loss in HEK293 cells – cell-based, plate reader, cherry-picked samples, cytotoxicity control, dose response (AID 743446); assay type: functional
[7] = blockers of bursicon-stimulated LGR2 cAMP reporter – cell-based, HEK293, CRE-luciferase reporter, cherry pick, set 2, dose response (AID 743343); assay type: functional;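 further: transfected cells were stimulated with diluted bursicon conditioned medium after compound addition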
[8] = target: T2, Replicative DNA helicase DnaB (Mycobacterium tuberculosis, UniProt P9WMR3); test: DnaB intein splicing inhibitors, dose response, biochemical, cell-free fluorescence (AID 449749); assay type: functional
T2 sequence (P9WMR3 whole entry): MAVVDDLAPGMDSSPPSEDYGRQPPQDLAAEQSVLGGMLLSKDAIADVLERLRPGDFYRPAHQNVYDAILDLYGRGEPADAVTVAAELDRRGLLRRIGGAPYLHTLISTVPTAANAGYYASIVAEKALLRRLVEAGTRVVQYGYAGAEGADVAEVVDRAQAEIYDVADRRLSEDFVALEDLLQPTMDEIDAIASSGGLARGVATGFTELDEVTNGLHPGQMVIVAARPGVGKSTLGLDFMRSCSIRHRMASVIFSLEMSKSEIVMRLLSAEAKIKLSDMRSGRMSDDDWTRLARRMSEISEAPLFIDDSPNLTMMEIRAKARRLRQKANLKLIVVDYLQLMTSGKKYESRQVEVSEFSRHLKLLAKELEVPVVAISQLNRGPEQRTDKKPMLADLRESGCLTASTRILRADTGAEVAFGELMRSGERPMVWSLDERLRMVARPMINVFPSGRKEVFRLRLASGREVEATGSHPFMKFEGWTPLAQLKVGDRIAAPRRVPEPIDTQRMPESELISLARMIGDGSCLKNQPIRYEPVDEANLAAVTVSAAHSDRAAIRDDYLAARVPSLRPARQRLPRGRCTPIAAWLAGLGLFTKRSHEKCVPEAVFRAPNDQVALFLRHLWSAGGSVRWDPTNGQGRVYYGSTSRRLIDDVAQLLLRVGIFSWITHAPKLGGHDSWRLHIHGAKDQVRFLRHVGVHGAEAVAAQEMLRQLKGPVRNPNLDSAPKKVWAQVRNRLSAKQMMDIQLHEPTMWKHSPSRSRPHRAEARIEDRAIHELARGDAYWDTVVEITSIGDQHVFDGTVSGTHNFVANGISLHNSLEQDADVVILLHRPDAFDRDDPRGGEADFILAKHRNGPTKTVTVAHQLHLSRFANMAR

[9] = viability of uninfected HEp-2 cells – cell-based, HTS, cytotoxicity control for RSV inhibitor project, dose response (AID 2410); assay type: functional; settings: human respiratory syncytial virus
[10] = Intein inhibitors as potential Tuberculosis drugs, a cytotoxicity screen. [Related pubchem assays (depositor defined):AID2221, AID2223, AID434968, AID435010, AID449749, AID449750, AID489010]; assay type: functional
[11] = target: T3, Tyrosine-protein phosphatase non-receptor type 22 (Homo sapiens, UniProt Q9Y2R2); test: SAR LYP1 Fluorescent Assay using pCAP substrate for In Vitro dose response studies - Set 2. [Related pubchem assays (depositor defined):AID1779, AID1784, AID2135, AID449727]; assay type: functional
T3 sequence (Q9Y2R2 whole entry): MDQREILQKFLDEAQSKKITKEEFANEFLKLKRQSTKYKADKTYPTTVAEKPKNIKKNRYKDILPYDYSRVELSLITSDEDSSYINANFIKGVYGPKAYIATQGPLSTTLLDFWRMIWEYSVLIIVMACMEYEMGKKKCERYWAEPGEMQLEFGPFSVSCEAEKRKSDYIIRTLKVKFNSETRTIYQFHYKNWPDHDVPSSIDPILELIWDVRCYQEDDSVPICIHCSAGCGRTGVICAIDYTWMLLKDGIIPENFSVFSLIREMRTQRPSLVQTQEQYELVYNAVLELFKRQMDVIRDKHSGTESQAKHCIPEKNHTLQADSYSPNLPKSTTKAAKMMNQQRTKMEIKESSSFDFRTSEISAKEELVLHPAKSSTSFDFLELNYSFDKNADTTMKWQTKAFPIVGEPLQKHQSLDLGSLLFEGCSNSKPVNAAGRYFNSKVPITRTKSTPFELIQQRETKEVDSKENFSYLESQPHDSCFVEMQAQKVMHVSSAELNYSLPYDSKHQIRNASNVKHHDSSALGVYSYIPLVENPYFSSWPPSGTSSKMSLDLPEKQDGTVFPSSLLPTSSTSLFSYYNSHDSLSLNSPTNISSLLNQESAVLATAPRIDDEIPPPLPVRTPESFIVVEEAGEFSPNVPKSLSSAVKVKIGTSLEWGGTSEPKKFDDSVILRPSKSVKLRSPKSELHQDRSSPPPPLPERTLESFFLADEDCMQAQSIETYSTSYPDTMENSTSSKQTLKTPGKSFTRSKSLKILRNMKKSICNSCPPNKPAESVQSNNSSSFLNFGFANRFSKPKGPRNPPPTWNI

[12] = target: T4, Tyrosine-protein phosphatase non-receptor type 12 (Homo sapiens, UniProt Q05209); test: SAR Selectivity Analysis of small molecule inhibitors of PEST using pCAP in a fluorescence assay. [Related pubchem assays (depositor defined):AID1779, AID1784, AID2135]; assay type: functional
T4 sequence (Q05209 whole entry): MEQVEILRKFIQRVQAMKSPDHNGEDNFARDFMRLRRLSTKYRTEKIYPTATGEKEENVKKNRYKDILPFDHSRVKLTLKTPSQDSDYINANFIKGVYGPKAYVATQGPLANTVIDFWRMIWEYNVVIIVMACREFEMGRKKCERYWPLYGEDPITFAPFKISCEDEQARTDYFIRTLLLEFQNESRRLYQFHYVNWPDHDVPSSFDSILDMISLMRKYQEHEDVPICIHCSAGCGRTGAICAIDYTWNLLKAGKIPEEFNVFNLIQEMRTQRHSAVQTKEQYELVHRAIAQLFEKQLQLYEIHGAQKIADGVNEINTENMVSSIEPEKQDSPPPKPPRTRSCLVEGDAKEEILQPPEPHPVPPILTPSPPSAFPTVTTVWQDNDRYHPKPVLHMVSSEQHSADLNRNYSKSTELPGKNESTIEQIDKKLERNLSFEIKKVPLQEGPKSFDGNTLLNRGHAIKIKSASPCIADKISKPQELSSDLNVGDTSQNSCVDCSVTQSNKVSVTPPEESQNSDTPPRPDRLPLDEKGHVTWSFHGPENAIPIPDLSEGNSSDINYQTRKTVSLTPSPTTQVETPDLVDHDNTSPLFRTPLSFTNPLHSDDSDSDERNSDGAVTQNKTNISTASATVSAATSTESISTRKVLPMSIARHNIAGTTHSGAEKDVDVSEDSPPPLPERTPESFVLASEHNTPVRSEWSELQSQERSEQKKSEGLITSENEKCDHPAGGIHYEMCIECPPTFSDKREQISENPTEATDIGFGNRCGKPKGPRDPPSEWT

[13] = target: T3, Tyrosine-protein phosphatase non-receptor type 22; test: inhibition of lymphoid tyrosine phosphatase LYP – biochemical, pCAP fluorogenic substrate, fluorescence, set 3, SAR follow-up (AID 449727); assay type: functional
[14] = target: T3, Tyrosine-protein phosphatase non-receptor type 22; test: PubChem AID 2140
[15] = target: T3, Tyrosine-protein phosphatase non-receptor type 22; test: SAR LYP1 Fluorescent Assay using OMFP substrate for In Vitro dose response studies - Set 2. [Related pubchem assays (depositor defined):AID1779, AID1784, AID2140, AID449726, AID488869]; assay type: functional
[16] = target: T3, Tyrosine-protein phosphatase non-receptor type 22; test: PubChem AID 2135
[17] = target: T3, Tyrosine-protein phosphatase non-receptor type 22; test: SAR LYP1 Fluorescent Assay using OMFP substrate for In Vitro dose response studies - Set 3. [Related pubchem assays (depositor defined):AID1779, AID1784, AID2140, AID2686]; assay type: functional
[18] = target: T5, Tyrosine-protein phosphatase non-receptor type 7 (Homo sapiens, UniProt P35236); test: inhibition of hematopoietic tyrosine phosphatase HePTP – biochemical, set 2, SAR follow-up (AID 449736); assay type: functional
T5 sequence (P35236 whole entry): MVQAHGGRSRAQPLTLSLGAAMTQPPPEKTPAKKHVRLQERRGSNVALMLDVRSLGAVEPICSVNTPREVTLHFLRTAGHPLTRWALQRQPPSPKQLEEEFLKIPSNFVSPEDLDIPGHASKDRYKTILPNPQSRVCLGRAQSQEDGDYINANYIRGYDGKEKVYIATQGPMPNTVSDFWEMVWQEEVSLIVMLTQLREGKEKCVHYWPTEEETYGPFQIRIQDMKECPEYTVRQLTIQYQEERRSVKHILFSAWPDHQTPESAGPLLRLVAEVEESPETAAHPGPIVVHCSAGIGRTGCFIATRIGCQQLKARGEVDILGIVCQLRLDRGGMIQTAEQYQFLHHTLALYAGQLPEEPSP

Chain of Alkaline phosphatase, placental type (P05187 whole entry): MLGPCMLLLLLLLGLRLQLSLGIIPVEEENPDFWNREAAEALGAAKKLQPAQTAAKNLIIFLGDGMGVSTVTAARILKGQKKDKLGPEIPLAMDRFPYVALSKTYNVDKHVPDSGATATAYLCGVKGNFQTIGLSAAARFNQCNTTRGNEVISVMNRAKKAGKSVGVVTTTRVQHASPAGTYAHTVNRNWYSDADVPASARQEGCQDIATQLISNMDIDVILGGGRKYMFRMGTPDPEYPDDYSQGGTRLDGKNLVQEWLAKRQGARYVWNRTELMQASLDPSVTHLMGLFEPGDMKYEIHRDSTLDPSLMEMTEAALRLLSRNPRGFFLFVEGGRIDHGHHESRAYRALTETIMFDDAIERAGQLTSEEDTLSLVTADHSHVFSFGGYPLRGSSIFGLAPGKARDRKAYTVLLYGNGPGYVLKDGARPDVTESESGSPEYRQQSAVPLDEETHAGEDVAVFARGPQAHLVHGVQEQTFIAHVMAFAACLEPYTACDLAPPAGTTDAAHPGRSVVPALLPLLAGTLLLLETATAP

Question: What does the source list for `CCN=C(S)NN=C(S)NCc1ccccc1`?
Answer: IC50 [1]: > 100 µM (inactive); IC50 [2]: > 122 µM (inactive)

Question: What does the source list for `Cc1sc2ncnc(Sc3nnnn3-c3ccccc3)c2c1C`?
Answer: AC50 [3]: 3.94 µM (active); AC50 [4]: 10.9 µM (active); EC50 (Protein RecA): 3.18 µM (active); AC50 [5]: 15.4 µM (active); AC50 [6]: 19.3 µM (active); AC50 [7]: 4.15 µM (active); AC50 [8]: 3.83 µM (active); CC50 [9]: 11.2 µM (active); CC50 [10]: 14.4 µM (active)

Question: Which IC50 [11] does the source give for `CCOc1cc(/C=C(/C#N)c2cccc(F)c2)cc(Cl)c1OCc1ccc(C(=O)O)cc1` here?
Answer: Its IC50 is 36.1 µM (active).

Question: And the IC50 [12]?
Answer: Its IC50 is 5.08 µM (active).

Question: What about the IC50 [13] of the same compound?
Answer: Its IC50 is 46.7 µM (active).

Question: What about the IC50 [14] of the same compound?
Answer: Its IC50 is > 100 µM (inactive).

Question: What about the IC50 [15] of the same compound?
Answer: Its IC50 is 21.8 µM (active).

Question: What about the IC50 [16] of the same compound?
Answer: The IC50 was > 100 µM (inactive).

Question: What about the IC50 [17] of the same compound?
Answer: Its IC50 is 34.6 µM (active).

Question: And the IC50 [18]?
Answer: Its IC50 is 2.25 µM (active).
